Experimental data taken from patent EP4342467A1, “KU INHIBITORS FOR USE IN TUMOR THERAPY” (Masarykova Univerzita, priority 2022, dated 2024).

Experiments:
Format in all cases: cell-based, human
A2780 = assay: growth of A2780 cells by ATPlite, alone and in combination with Bleomycin
Method: 2,000 A2780 cells were seeded in 100 µl of RPMI 1640 medium with 300 mg/l L-Glutamine and 10% Fetal Bovine Serum for 1 day in 96well plate and treated by 0.025 µg/ml of Bleomycin, 0.5 µM of iKu-1 or their combination for 7 days. Number of viable cells was measured by ATPlite kit (Perkin Elmer) and normalized to the treatment with 0.5% DMSO.
Values in the table indicate relative growth assessed by ATPlite kit compared to the control sample treated with 0.5% DMSO after 7 days of treatment.
2,000 SKOV3 and A2780 cells were seeded in 100 µl of McCoy's 5a or RPMI 1640 media, respectively, for one day and then incubated with iKU-1 for 7 days. Number of viable cells was measured by ATPlite kit (Perkin Elmer) and normalized to the treatment with 0.5% DMSO.

HCT116 cells [1] = assay: C-circle assay (extrachromosomal circular telomeric DNA); conditions: C-circle assay in HCT116 cells treated for 3 to 7 days
Method: HCT116 cell were incubated for 3, 5 or 7 days in McCoy's 5a medium with 10% Fetal Bovine Serum, 2 mM L-Glutamine and Penicilin/Streptomycin 200 U/l each and supplemented with Compound 1-9. C-circle assay that utilizes rolling circle amplification of circular DNA by φ29 polymerase was performed as described in Henson, J.D., Lau, L.M., Koch, S., Martin La Rotta, N., Dagg, R.A., and Reddel, R.R. (2017). The C-Circle Assay for alternative-lengthening-of-telomeres activity. Methods 114, 74-84. Amplified circular telomeric DNA was detected by dot blot hybridization with P^32-labeled telomeric DNA oligonucleotide (5'-[…]-3' (SEQ ID NO: 6)) (Figure 4).

HCT116 cells [2] = assay: DNA damage induction, immunodetection of γH2AX in nuclei; conditions: HCT116 incubated for 1 day
Method: iKU-1 induces DNA damage in treated cells (Figure 3). HCT116 cells were incubated for 1 day in McCoy's 5a medium with 10% Fetal Bovine Serum, 2 mM L-Glutamine and Penicilin/Streptomycin 200 U/l each and supplemented with iKU-1. DNA damage induction was assessed by immunodetection of yH2AX in nuclei with specific antibody (Anti-phospho-Histone H2A.X (Ser139) Antibody, clone JBW301, Merck; dilution 1:500) and Alexa Fluor-conjugated secondary antibody (Goat anti-Mouse IgG (H+L) Highly Cross-Adsorbed Secondary Antibody, Alexa Fluor™ Plus 647, Invitrogen/Thermofisher; dilution 1:500).

DNA-PKcs = DNA-PKcs autophosphorylation (S2056) after bleomycin, Western blotting in HCT116 cells; conditions: HCT116, pre-incubated 1 hr
Method: iKU-1 blocks activation of DNA-PKcs upon induction of DNA damage in vivo (Figure 2). HCT116 cells were pre-incubated with iKU-1 for 1 hr in McCoy's 5a medium supplemented with 10% Fetal Bovine Serum, 2 mM L-Glutamine, Penicilin/Streptomycin 200 U/l each. DNA breaks were induced by addition of bleomycin and incubated for additional 4 hrs. DNA damage triggers DNA-PKcs activity that leads to its autophosphorylation at the residue 2056. The phosphorylated DNA-PKcs was detected by Western blotting using anti-pDNA PKcs (phospho S2056) antibody [EPR5670] (Abcam, ab124918) and the total amount of DNA-PKcs with the anti-DNA PKcs antibody (BioRad, AHP318), both in 1:10000 dilution in TBS-T buffer overnight at 4°C. The primary antibody was detected by immunostaining with IRDye 800CW-conjugated Goat anti-Rabbit IgG secondary antibody (dilution 1:20000 in TBS-T). The signal was imaged using Odyssey Imager (Li-Cor). […] The total level of DNA-PKcs was not altered by the treatment.

U2OS = assay: combination with BIBR1532, relative growth by ATPlite; conditions: 10 µM BIBR1532, 0.25 µM iKU-1 or their combination, 4 days
HCT116 cells [3] = assay: Telomere Shortest Length Assay; conditions: HCT116 treated for two days, compared with untreated control
Method: iKU-1 induces rapid shortening of telomeres (Figure 6). HCT116 cells were treated for two days with iKU-1 and telomere size was measured by Telomere Shortest Length Assay as described in Lai, T.P., Zhang, N., Noh, J., Mender, I., Tedone, E., Huang, E., Wright, W.E., Danuser, G., and Shay, J.W. (2017). A method for measuring the distribution of the shortest telomeres in cells and tissues. Nat Commun 8, 1356, whereby individual telomeres are PCR-amplified, separated by agarose gel electrophoresis and detected by Southern hybridization with P^32-labeled telomeric DNA oligonucleotide (5'-[…]-3' (SEQ ID NO: 6)).

O=C(Nc1nc(-c2ccccn2)cs1)c1cncc(Br)c1 [Compound 1]
interaction with Bleomycin on growth (A2780; A2780, 0.025 µg/ml Bleomycin with 0.5 µM iKu-1, 7 days): synergism | growth inhibition (A2780; A2780, 0.5 µM, 7 days): do not show growth inhibition | relative growth assessed by ATPlite kit compared to the control sample treated with 0.5% DMSO (A2780; A2780, 0.025 µg/ml Bleomycin, 0.5 µM iKU-1 or their combination, 7 days): 1.11 | Concentration inducing c-circle formation (HCT116 cells [1]): 1 µM | DNA damage induction (γH2AX signal) (HCT116 cells [2]): formation of either nuclear foci or whole nuclear staining in a subset of cells | total level of DNA-PKcs (DNA-PKcs; then bleomycin for 4 hrs): not altered | phosphorylation of DNA-PKcs (S2056) (DNA-PKcs; then bleomycin up to 30 µg/ml for 4 hrs): blocked the phosphorylation | relative growth assessed by ATPlite kit compared to the control sample treated with 0.5% DMSO (U2OS): 0.81 | size of telomeres (HCT116 cells [3]): relative decrease in the size of telomeres
